We go through six molecules from patent US20230158042A1, “COMBINATION CANCER THERAPY WITH PENTAAZA MACROCYCLIC RING COMPLEX AND HORMONE THERAPY AGENT” (Galera Labs, LLC, priority 2020, published 2023).

In data set [1] the test system is MCF7-MnSOD^K68Q cells. Put plainly: Clonogenic cell survival in MCF7-MnSOD^K68Q cells. It is filed as cell-based, human. As to the method:
FIGS. 25a-25b show clonogenic cell survival studies in MCF7-MnSOD^K68Q cells exposed to either: Fulv at 100 nM (in FIG. 25a); or Palb at 0.5 µM (in FIG. 25b) using standard methods. […] Error bars are ± 1 SEM. Experiments in triplicate. *** p < 0.001.
(§1) Clonogenic cell survival assay. For the clonogenic survival analysis, exponentially growing cells were replated using appropriate dilutions, and clonogenic survival was evaluated after 14 days in regular growth medium. Cells were stained with crystal violet, and colonies of >50 cells were counted and utilized to calculate clonogenic survival^46.

Data set [2] deals with T47D cells constitutively expressing MnSOD^K68Q. Put plainly: Clonogenic cell survival in T47D-MnSOD^K68Q cells with hydroxy-Tam. It is filed as cell-based, human. As to conditions: 1 µM hydroxy-Tam; compared to cells expressing MnSOD^K68WT or MnSOD^K68R.
Data set [3] relates to MCF7 cells expressing shSIRT3. Briefly: Clonogenic cell survival in MCF7-shSIRT3 cells with hydroxy-Tam. It is filed as cell-based, human. As to conditions: 1 µM hydroxy-Tam for 120 h. As for the experimental part: All experiments were done in triplicate. Error bars represent ± 1 SEM. **p < 0.01, and ***p < 0.001. Three-armed groups were analyzed via a one-way ANOVA statistical analysis with Tukey’s post-analysis, and two-armed groups were analyzed by a t-test.
as §1

Data set [4] relates to T47D cells expressing shSIRT3. Briefly: Clonogenic cell survival in T47D-shSIRT3 cells with hydroxy-Tam. Format: cell-based, human. The settings on record: 1 µM 4-hydroxy-Tam for 24 h. From the text:
FIGS. 14a-14g are images and plots that illustrate that loss of SIRT3-induced MnSOD—K68 deacetylation leads to hydroxy-Tam resistance, and that such resistance is associated with increased lysine acetylation in human breast cancer cells, while mimicking deacetylation of MnSOD—K68 or pharmacologically mimicking the activity of deacetylated lysine 68 MnSOD with a manganese pentaazamacrocyclic dismutase mimetic has opposing effects. With respect to FIG. 14a, T47D-MnSOD^WT, T47D-MnSOD^K68R, and T47D-MnSOD^K68D permanent cell lines were selected for hydroxy-Tam resistance in 1 µM for 3 months, and clonogenic cell survival experiments were completed. […] With respect to FIG. 14c, T47D and T47D-HTR cells, with and without exposure to 1 µM 4-hydroxy-Tam for 24 h (HT), were measured for hydroxy-Tam response by clonogenic survival experiments. […] The cell lysates were analyzed by immunoblotting with anti-MnSOD-K122-Ac (validated as a SIRT3 deacetylation target in Tao et al., 2010, Cancer Cell), anti-MnSOD, anti-OSCP-K139-Ac (validated as a SIRT3 deacetylation target in Tao et al., 2010, Cancer Cell), anti-OSCP, anti-IDH2K413-Ac (validated as a SIRT3 deacetylation target in Someya et al., 2010, Cancer Cell), anti-IDH2, and anti-actin. […]
Clonogenic cell survival assay. […] Cells were stained with crystal violet, and colonies of >50 cells were counted and utilized to calculate clonogenic survival^46.

Data set [5] concerns MCF7 cells overexpressing MnSOD^K68Q. Put plainly: MTT cell viability, MCF7 cells overexpressing MnSOD^K68Q. It is filed as cell-based, human. The settings on record: 48 hours. As for the experimental part:
(§2) In FIGS. 28a-28b, cell lysates of 250 nM, 500 nM, 1 µM cisplatin-resistant and 500pM, 1 nM and 2 nM doxorubicin-resistant MCF7 cells (cultured in drug-containing media for 3 months) were collected and immunoblotted for MnSOD—K68—Ac, MnSOD, actin and tubulin. In FIGS. 28d-28e, cell lysates of 2.5 µM, 5 µM, 10 µM cisplatin-resistant and 5 nM, 10 nM and 20 nM doxorubicin-resistant T47D cells (cultured in drug-containing media for 3 months) were collected and immunoblotted for MnSOD—K68—Ac, MnSOD, actin and tubulin. In FIGS. 28c and 28f, 10,000 MCF7 or T47D cells overexpressed with empty vector, MnSOD^WT, MnSOD^K68R or MnSOD^K68Q were plated in 96 well plate and treated with cisplatin (1 µM for MCF7 and 10 µM for T47D) or doxorubicin (2 nM for MCF7 and 20 nM for T47D) the next day. After 48 hours, MTT assay is conducted to determine the cell viability after chemotherapy drug treatment.
(§3) Cell proliferation was measured using MTT proliferation assay kit (ab211091). 10,000 exponentially growing cells were plated in regular growth medium per well into 96-well plates in triplicate. Cells were treated with specified drugs after overnight and incubated for 48 hours. […] The absorbance was read at OD=590 nm and used to evaluate cell proliferation.

Data set [6] relates to T47D cells overexpressing MnSOD^K68Q. Briefly: MTT cell viability, T47D cells overexpressing MnSOD^K68Q. It is filed as cell-based, human. The settings on record: 48 hours. As for the experimental part: as §2, §3
Data set [7] concerns LNCaP-MnSOD^K68Q cells. Briefly: Clonogenic cell survival in LNCaP-MnSOD^K68Q cells. Format: cell-based. As to conditions: 10 µM of ENZ for 72 hr. As for the experimental part: In FIG. 20a, clonogenic cell survival experiments were done in LNCaP-ENZR cells infected with lenti-MnSOD^K68R or lenti-MnSOD^K68Q, in the presence of ENZ (10 µM). In FIG. 20b, clonogenic survival assays were done in LNCaP cells infected with lenti-MnSOD^WT, lenti-MnSOD^K68R, and lenti-MnSOD^K68Q, and selected with neomycin, and placed in 10 µM of ENZ for 72 hr. Error bars ± 1 SEM. Experiments were done in triplicate. **p < 0.01.
FIGS. 21a-21b are a chart and graph showing that pharmacologically mimicking the activity of deacetylated lysine 68 MnSOD with a manganese pentaazamacrocyclic dismutase mimetic both inhibited the growth of LNCaP-ENZR tumors and reversed the enzalutamide resistance in LNCaP-ENZR / LNCaP—MnSOD^K68Q cells and tumors. In FIG. 21a, clonogenic cell survival experiments were performed in LNCaP-ENZR (left two bars) and LNCaP—MnSOD^K68Q (right two bars) treated with ENZ, with or without GC4419 (20 µM) for 5 days. […] Tumor volumes were measured three times a week for 46 days. For each group n=10. Error bars ± 1 SEM. All experiments done in triplicate. **p < 0.01.

In data set [8] the test system is colon of rats. As to conditions: experimental model of colitis; cited from earlier work.
For data set [9], the system named is hamster model of acute, radiation-induced oral mucositis. The settings on record: cited from earlier work.
In data set [10] the test system is adult mice. As to conditions: lethal total body irradiation of adult mice; cited from earlier work.
The test system of data set [11] is rat model of inflammation. The settings on record: cited from earlier work.
For data set [12], the system named is rat model of collagen-induced arthritis. The settings on record: cited from earlier work.

For 4-hydroxytamoxifen [hydroxy-Tam], the “cytotoxicity of hydroxy-Tam (clonogenic survival)” value is “significant resistance to the cytotoxicity of hydroxy-Tam” in data set [1] (1 µM hydroxy-Tam for 5 days, compared to cells expressing MnSOD^K68WT or MnSOD^K68R) and “significant resistance to the cytotoxicity of hydroxy-Tam” in [2]. Besides, the “hydroxy-Tam cytotoxicity (clonogenic survival)” value in data set [3] and in data set [4] was “resistance to hydroxy-Tam cytotoxicity” each time.
With `[NH2][Pt]([NH2])([Cl])[Cl]` [CDDP, cisplatin], the “cell viability after drug treatment (MTT)” value in [5] (CDDP 1 µM) and in [6] (CDDP 10 µM) was “higher resistance” throughout.
As to `COc1cccc2c1C(=O)c1c(O)c3c(c(O)c1C2=O)C[C@@](O)(C(=O)CO)C[C@@H]3O[C@H]1C[C@H](N)[C@H](O)[C@H](C)O1` [DXR, doxorubicin], the “cell viability after drug treatment (MTT)” value in [5] (DXR 2 nM) and in [6] (DXR 20 nM) was “higher resistance” throughout.
For the molecule `CNC(=O)c1ccc(N2C(=S)N(c3ccc(C#N)c(C(F)(F)F)c3)C(=O)C2(C)C)cc1F` [ENZ, enzalutamide, reference compound], in data set [7], the “response to ENZ (clonogenic survival)” value is listed as “ENZR phenotype”.
Take `C[C@]12CC[C@@H]3c4ccc(O)cc4C[C@@H](CCCCCCCCC[S+]([O-])CCCC(F)(F)C(F)(F)F)[C@H]3[C@@H]1CC[C@@H]2O` (stereo partly drawn) [Fulv, fulvestrant]: the “clonogenic tumor cell survival” value in data set [1] (Fulv at 100 nM, compared to MCF7 cells expressing MnSOD^WT) is “exhibited resistance”.
Regarding `[Cl-].[Cl-].[Mn+2].c1cc2nc(c1)CN[C@@H]1CCCC[C@H]1NCCN[C@@H]1CCCC[C@H]1NC2` [GC4403], the “injury to the colon” value in [8] is listed as “very significantly reduce the injury to the colon”. For the same molecule, the radiation damage entry in data set [9] and in [10] was “attenuate the radiation damage” in each case. Also, the inflammation result in data set [11] was “inhibit inflammation”. Also, in data set [12], the joint disease result is “prevent joint disease”.
